Where two headings read alike, the source gives them in different places.
How the values were obtained:
[1] = tested on: p-SLP-76 (Ser376) in Jurkat cells; experiment: pSLP76 Cellular Assay (AlphaLISA SureFire Ultra p-SLP-76 (Ser376), anti-CD3 activated Jurkat cells); assay type: cell-based; conditions: Homo sapiens; Jurkat cells, anti-CD3 stimulation, pSLP76; read-out: Cellular Potency
Summary of the method: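 Jurkat cells, serum-starved overnight in Opti-MEM then in HBSS, preincubated 1 h at 37 °C with 22-point 2-fold compound dilutions, then stimulated with anti-CD3 (0.025 mg/ml added solution) for 45 min. Lysate p-SLP-76 (Ser376) measured by AlphaLISA at 570 nm; IC50 from 4-parameter logistic fit.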

HPK1 = HPK1 (Homo sapiens, UniProt Q92918); experiment: HPK1 Biochemical Assay (ADP-Glo luminescence; low ATP 10 μM or high ATP 200 μM)
[2] = 2 nM HPK1, 10 μM ATP, read-out: Biochemical Potency (low ATP)

Chain of HPK1 (Q92918 whole entry, species assumed): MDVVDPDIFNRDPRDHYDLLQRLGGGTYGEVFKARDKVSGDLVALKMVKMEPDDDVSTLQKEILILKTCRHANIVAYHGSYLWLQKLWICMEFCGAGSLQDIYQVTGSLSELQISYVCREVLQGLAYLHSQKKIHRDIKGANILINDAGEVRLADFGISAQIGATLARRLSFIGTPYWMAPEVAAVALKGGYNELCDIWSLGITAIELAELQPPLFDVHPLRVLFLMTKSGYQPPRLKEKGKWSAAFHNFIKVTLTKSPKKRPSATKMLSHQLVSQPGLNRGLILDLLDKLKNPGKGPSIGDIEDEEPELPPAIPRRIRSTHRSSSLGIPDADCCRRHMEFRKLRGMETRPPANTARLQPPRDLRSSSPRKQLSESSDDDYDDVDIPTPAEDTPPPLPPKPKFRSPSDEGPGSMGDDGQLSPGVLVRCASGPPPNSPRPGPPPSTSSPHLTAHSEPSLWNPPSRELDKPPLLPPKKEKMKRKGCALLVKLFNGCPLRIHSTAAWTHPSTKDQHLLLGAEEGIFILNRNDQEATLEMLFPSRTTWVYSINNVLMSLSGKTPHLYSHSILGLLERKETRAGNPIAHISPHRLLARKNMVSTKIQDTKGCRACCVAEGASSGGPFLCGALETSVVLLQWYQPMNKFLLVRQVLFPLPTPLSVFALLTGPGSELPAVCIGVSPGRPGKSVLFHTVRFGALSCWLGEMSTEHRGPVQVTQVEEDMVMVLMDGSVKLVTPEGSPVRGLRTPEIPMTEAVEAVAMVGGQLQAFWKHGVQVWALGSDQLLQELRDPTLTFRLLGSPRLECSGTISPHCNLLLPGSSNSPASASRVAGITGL

| SMILES | IC50 [1] [nM] | IC50 (HPK1; [2]) [nM] | IC50 (HPK1; 5 nM HPK1, 200 μM ATP, read-out: Biochemical Potency (high ATP)) [nM] |
| --- | --- | --- | --- |
| Cc1cccnc1-c1nc2cc(Nc3cccc(N4CCNC5CC54)n3)ncc2s1 (centres unmarked) [Example 87, 6-{2,5-Diazabicyclo[4.1.0]heptan-2-yl}-N-[2-(3-methylpyridin-2-yl)-[1,3]thiazolo[5,4-c]pyridin-6-yl]pyridin-2-amine] | 1000 to 5000 | < 100 | – |
| CC(C)c1cccnc1-c1nc2cc(Nc3cccc(N4C[C@@H]5C[C@H]4CN5C)n3)ncc2s1 [Example 93, 6-[(1S,4S)-5-Methyl-2,5-diazabicyclo[2.2.1]heptan-2-yl]-N-{2-[3-(propan-2-yl)pyridin-2-yl]-[1,3]thiazolo[5,4-c]pyridin-6-yl}pyridin-2-amine] | 100 to 1000 | < 100 | – |
| Cc1cc(-c2nc3cc(Nc4cccc(N5C[C@@H]6C[C@H]5CN6C)n4)ncc3s2)ccn1 [Example 96, 6-[(1S,4S)-5-Methyl-2,5-diazabicyclo[2.2.1]heptan-2-yl]-N-[2-(2-methylpyridin-4-yl)-[1,3]thiazolo[5,4-c]pyridin-6-yl]pyridin-2-amine] | 100 to 1000 | < 100 | < 100 |
| Cc1cccnc1-c1nc2cc(Nc3cccc(N4CC5CCC4CN5C)n3)ncc2s1 (centres unmarked) [Example 97, 6-{5-Methyl-2,5-diazabicyclo[2.2.2]octan-2-yl}-N-[2-(3-methylpyridin-2-yl)-[1,3]thiazolo[5,4-c]pyridin-6-yl]pyridin-2-amine] | 1000 to 5000 | < 100 | – |
| Cc1cccnc1-c1nc2cc(Nc3cccc(N4C[C@@H](C)N(C)[C@@H](C)C4)n3)ncc2s1 [Example 100, N-[2-(3-Methylpyridin-2-yl)-[1,3]thiazolo[5,4-c]pyridin-6-yl]-6-[(3R,5S)-3,4,5-trimethylpiperazin-1-yl]pyridin-2-amine] | > 5000 | < 100 | – |
| Cc1cccnc1-c1nc2cc(Nc3ccc(C)c(N4C[C@@H]5C[C@H]4CN5C)n3)ncc2s1 [Example 101, 5-Methyl-6-[(1S,4S)-5-methyl-2,5-diazabicyclo[2.2.1]heptan-2-yl]-N-[2-(3-methylpyridin-2-yl)-[1,3]thiazolo[5,4-c]pyridin-6-yl]pyridin-2-amine] | 100 to 1000 | < 100 | – |
| Cc1cccnc1-c1nc2cc(Nc3nc(N4C[C@@H]5C[C@H]4CN5C)ccc3F)ncc2s1 [Example 109, 3-Fluoro-6-[(1S,4S)-5-methyl-2,5-diazabicyclo[2.2.1]heptan-2-yl]-N-[2-(3-methylpyridin-2-yl)-[1,3]thiazolo[5,4-c]pyridin-6-yl]pyridin-2-amine] | 1000 to 5000 | < 100 | – |

Other lines, results leading:

| IC50 [1] [nM] | IC50 (HPK1; [2]) [nM] | IC50 (HPK1; 5 nM HPK1, 200 μM ATP, read-out: Biochemical Potency (high ATP)) [nM] | SMILES |
| --- | --- | --- | --- |
| 100 to 1000 | < 100 | – | CN1C[C@@H]2C[C@H]1CN2c1cccc(Nc2cc3nc(-c4cccnc4)sc3cn2)n1 [Example 89, 6-[(1S,4S)-5-Methyl-2,5-diazabicyclo[2.2.1]heptan-2-yl]-N-[2-(pyridin-3-yl)-[1,3]thiazolo[5,4-c]pyridin-6-yl]pyridin-2-amine] |
| 100 to 1000 | < 100 | – | Cc1cccnc1-c1nc2cc(Nc3cccc(N4C[C@@H]5C[C@H]4CN5C)n3)ncc2s1 [Example 90, 6-[(1S,4S)-5-Methyl-2,5-diazabicyclo[2.2.1]heptan-2-yl]-N-[2-(3-methylpyridin-2-yl)-[1,3]thiazolo[5,4-c]pyridin-6-yl]pyridin-2-amine] |
| 100 to 1000 | < 100 | – | CN1C[C@@H]2C[C@H]1CN2c1cccc(Nc2cc3nc(-c4ncccc4C(F)(F)F)sc3cn2)n1 [Example 92, 6-[(1S,4S)-5-Methyl-2,5-diazabicyclo[2.2.1]heptan-2-yl]-N-{2-[3-(trifluoromethyl)pyridin-2-yl]-[1,3]thiazolo[5,4-c]pyridin-6-yl}pyridin-2-amine] |
| < 100 | < 100 | – | CN1C[C@@H]2C[C@H]1CN2c1cccc(Nc2cc3nc(-c4nccn4C)sc3cn2)n1 [Example 108, N-[2-(1-Methyl-1H-imidazol-2-yl)-[1,3]thiazolo[5,4-c]pyridin-6-yl]-6-[(1S,4S)-5-methyl-2,5-diazabicyclo[2.2.1]heptan-2-yl]pyridin-2-amine] |

From patent US12649751B2 (Arcus Biosciences, Inc., priority 2022, dated 2026)
